Measured values published in patent publication US20250059159A1, “PLPRO INHIBITORS” (SHANGHAI SYNERGY PHARMACEUTICAL SCIENCES CO., LTD., priority 2021, published 2025).

Target: SARS-CoV-2 PLpro (Severe acute respiratory syndrome coronavirus 2 (2019-nCoV) (SARS-CoV-2), UniProt P0DTD1)
Assay: PLpro enzymatic inhibition assay (IC50 value determination)
Format: biochemical
Conditions: 60 min preincubation for covalent inhibitors, 10 min for non-covalent, read-out: Inhibition of SARS-CoV-2 PLpro IC50 range

Q: For COC(=O)/C=C/CNC(=O)CNC(=O)CN(C(=O)Cc1ccc2c(c1)OCO2)C1CCN(C(C)c2cccc3ccccc23)CC1 (centres unmarked) [Compound 1, methyl (E)-4-(2-(2-(2-(benzo[d][1,3]dioxol-5-yl)-N-(1-(1-(naphthalen-1-yl)ethyl)piperidin-4-yl)acetamido)acetamido)acetamido)but-2-enoate], which IC50 is on record?
A: 100 to 1000 nM

Q: Which IC50 does the source give for COC(=O)/C=C/CNC(=O)CNC(=O)CN(C(=O)Cc1ccc2c(c1)OCO2)C1CCN([C@H](C)c2cccc3ccccc23)CC1 [Compound 2, methyl (R,E)-4-(2-(2-(2-(benzo[d][1,3]dioxol-5-yl)-N-(1-(1-(naphthalen-1-yl)ethyl)piperidin-4-yl)acetamido)acetamido)acetamido)but-2-enoate] here?
A: 100 to 1000 nM

Q: COC(=O)/C=C/CNC(=O)CNC(=O)CN(C(=O)Cc1cccc(F)c1)C1CCN([C@H](C)c2cccc3ccccc23)CC1 [Compound 3, methyl (R,E)-4-(2-(2-(2-(3-fluorophenyl)-N-(1-(1-(naphthalen-1-yl)ethyl)piperidin-4-yl)acetamido)acetamido)acetamido)but-2-enoate] was tested. Which IC50 did it give?
A: 100 to 1000 nM

Q: Which IC50 does the source give for COC(=O)/C=C/CNC(=O)CNC(=O)CN(C(=O)Cc1ccccc1)C1CCN(C(C)c2cccc3ccccc23)CC1 (centres unmarked) [Compound 4, methyl (E)-4-(2-(2-(N-(1-(1-(naphthalen-1-yl)ethyl)piperidin-4-yl)-2-phenylacetamido)acetamido)acetamido)but-2-enoate] here?
A: 100 to 1000 nM

Q: COC(=O)/C=C/CNC(=O)CNC(=O)CN(C(=O)C1CC1)C1CCN([C@H](C)c2cccc3ccccc23)CC1 [Compound 5, methyl (R,E)-4-(2-(2-(N-(1-(1-(naphthalen-1-yl)ethyl)piperidin-4-yl)cyclopropanecarboxamido)acetamido)acetamido)but-2-enoate] was tested. Which IC50 did it give?
A: < 100 nM

Q: How did the IC50 turn out when COC(=O)/C=C/CNC(=O)CNC(=O)CN(C(=O)C1CCC1)C1CCN(C(C)c2cccc3ccccc23)CC1 (centres unmarked) [Compound 6, methyl (E)-4-(2-(2-(N-(1-(1-(naphthalen-1-yl)ethyl)piperidin-4-yl)cyclobutanecarboxamido)acetamido)acetamido)but-2-enoate] was run?
A: < 100 nM

Q: COC(=O)/C=C/CNC(=O)CNC(=O)CN(C(=O)C1CCC1)C1CCN([C@H](C)c2cccc3ccccc23)CC1 [Compound 7, methyl (R,E)-4-(2-(2-(N-(1-(1-(naphthalen-1-yl)ethyl)piperidin-4-yl)cyclobutanecarboxamido)acetamido)acetamido)but-2-enoate] was tested. Which IC50 did it give?
A: 100 to 1000 nM

Q: Which IC50 does the source give for CC(c1cccc2ccccc12)N1CCC(N(CC(=O)NCC(=O)NC/C=C/C(N)=O)C(=O)C2CCC2)CC1 (centres unmarked) [Compound 8, (E)-N-(2-((2-((4-amino-4-oxobut-2-en-1-yl)amino)-2-oxoethyl)amino)-2-oxoethyl)-N-(1-(1-(naphthalen-1-yl)ethyl)piperidin-4-yl)cyclobutanecarboxamide] here?
A: 100 to 1000 nM

Q: How did the IC50 turn out when CC(c1cccc2ccccc12)N1CCC(N(CC(=O)NCC(=O)NC/C=C/S(C)(=O)=O)C(=O)C2CCC2)CC1 (centres unmarked) [Compound 9, (E)-N-(2-((2-((3-(methylsulfonyl)allyl)amino)-2-oxoethyl)amino)-2-oxoethyl)-N-(1-(1-(naphthalen-1-yl)ethyl)piperidin-4-yl)cyclobutanecarboxamide] was run?
A: 100 to 1000 nM

Q: With COC(=O)/C=C/CNC(=O)CNC(=O)CN(C(=O)C1CCCC1)C1CCN([C@H](C)c2cccc3ccccc23)CC1 [Compound 10, methyl (R,E)-4-(2-(2-(N-(1-(1-(naphthalen-1-yl)ethyl)piperidin-4-yl)cyclopentanecarboxamido)acetamido)acetamido)but-2-enoate] as the compound, how does the IC50 read?
A: 100 to 1000 nM

Q: For COC(=O)/C=C/CNC(=O)CNC(=O)CN(C(=O)C1CCCCC1)C1CCN([C@H](C)c2cccc3ccccc23)CC1 [Compound 11, methyl (R,E)-4-(2-(2-(N-(1-(1-(naphthalen-1-yl)ethyl)piperidin-4-yl)cyclohexanecarboxamido)acetamido)acetamido)but-2-enoate], which IC50 is on record?
A: 100 to 1000 nM

Q: With C#CCNC(=O)CNC(=O)CNC1CCN([C@H](C)c2cccc3ccccc23)CC1 [Compound 12, (R)-2-((1-(1-(naphthalen-1-yl)ethyl)piperidin-4-yl)amino)-N-(2-oxo-2-(prop-2-yn-1-ylamino)ethyl)acetamide] as the compound, how does the IC50 read?
A: 100 to 1000 nM

Q: Which IC50 does the source give for COC(=O)/C=C/CNC(=O)CNC(=O)CN(C(C)=O)C1CCN(C(C)c2cccc3ccccc23)CC1 (centres unmarked) [Compound 13, methyl (E)-4-(2-(2-(N-(1-(1-(naphthalen-1-yl)ethyl)piperidin-4-yl)acetamido)acetamido)acetamido)but-2-enoate] here?
A: < 100 nM

Q: With COC(=O)/C=C/CNC(=O)CNC(=O)CN(C(=O)C(F)(F)F)C1CCN([C@H](C)c2cccc3ccccc23)CC1 [Compound 14, methyl (R,E)-4-(2-(2-(2,2,2-trifluoro-N-(1-(1-(naphthalen-1-yl)ethyl)piperidin-4-yl)acetamido)acetamido)acetamido)but-2-enoate] as the compound, how does the IC50 read?
A: 100 to 1000 nM

Q: How did the IC50 turn out when CCC(=O)N(CC(=O)NCC(=O)NC/C=C/C(=O)OC)C1CCN(C(C)c2cccc3ccccc23)CC1 (centres unmarked) [Compound 15, methyl (E)-4-(2-(2-(N-(1-(1-(naphthalen-1-yl)ethyl)piperidin-4-yl)propionamido)acetamido)acetamido)but-2-enoate] was run?
A: < 100 nM

Q: How did the IC50 turn out when COC(=O)/C=C/CNC(=O)CNC(=O)CN(C(=O)CC(F)(F)F)C1CCN(C(C)c2cccc3ccccc23)CC1 (centres unmarked) [Compound 16, methyl (E)-4-(2-(2-(3,3,3-trifluoro-N-(1-(1-(naphthalen-1-yl)ethyl)piperidin-4-yl)propanamido)acetamido)acetamido)but-2-enoate] was run?
A: 100 to 1000 nM

Q: How did the IC50 turn out when COC(=O)/C=C/CNC(=O)CNC(=O)CN(C(=O)C(C)C)C1CCN([C@H](C)c2cccc3ccccc23)CC1 [Compound 17, methyl (R,E)-4-(2-(2-(N-(1-(1-(naphthalen-1-yl)ethyl)piperidin-4-yl)isobutyramido)acetamido)acetamido)but-2-enoate] was run?
A: 100 to 1000 nM

Q: How did the IC50 turn out when CCCC(=O)N(CC(=O)NCC(=O)NC/C=C/C(=O)OC)C1CCN([C@H](C)c2cccc3ccccc23)CC1 [Compound 18, methyl (R,E)-4-(2-(2-(N-(1-(1-(naphthalen-1-yl)ethyl)piperidin-4-yl)butyramido)acetamido)acetamido)but-2-enoate] was run?
A: < 100 nM

Q: How did the IC50 turn out when COC(=O)/C=C/CNC(=O)CNC(=O)CN(C(=O)CC(C)C)C1CCN([C@H](C)c2cccc3ccccc23)CC1 [Compound 19, methyl (R,E)-4-(2-(2-(3-methyl-N-(1-(1-(naphthalen-1-yl)ethyl)piperidin-4-yl)butanamido)acetamido)acetamido)but-2-enoate] was run?
A: < 100 nM

Q: With COC(=O)/C=C/CNC(=O)CNC(=O)CN(C1CCN([C@H](C)c2cccc3ccccc23)CC1)S(N)(=O)=O [Compound 22, methyl (R,E)-4-(2-(2-((1-(1-(naphthalen-1-yl)ethyl)piperidin-4-yl)(sulfamoyl)amino)acetamido)acetamido)but-2-enoate] as the compound, how does the IC50 read?
A: < 100 nM

Q: Which IC50 does the source give for COC(=O)/C=C/CNC(=O)CNC(=O)CN(C1CCN([C@H](C)c2cccc3ccccc23)CC1)S(=O)(=O)NC(=O)OC(C)(C)C [Compound 23, methyl (R,E)-4-(2-(2-((N-(tert-butoxycarbonyl)sulfamoyl)(1-(1-(naphthalen-1-yl)ethyl)piperidin-4-yl)amino)acetamido)acetamido)but-2-enoate] here?
A: 100 to 1000 nM

Q: Which IC50 does the source give for COC(=O)/C=C/CNC(=O)CNC(=O)CNC1CCN([C@H](C)c2cccc3ccccc23)CC1 [Compound 24, methyl (R,E)-4-(2-(2-((1-(1-(naphthalen-1-yl)ethyl)piperidin-4-yl)amino)acetamido)acetamido)but-2-enoate] here?
A: 100 to 1000 nM

Q: With COC(=O)/C=C/CNC(=O)CNC(=O)CN(C)C1CCN([C@H](C)c2cccc3ccccc23)CC1 [Compound 25, methyl (R,E)-4-(2-(2-(methyl(1-(1-(naphthalen-1-yl)ethyl)piperidin-4-yl)amino)acetamido)acetamido)but-2-enoate] as the compound, how does the IC50 read?
A: < 100 nM

Q: COC(=O)/C=C/CNC(=O)CNC(=O)[C@H](CN)NC1CCN([C@H](C)c2cccc3ccccc23)CC1 [Compound 26, methyl (E)-4-(2-((S)-3-amino-2-((1-((R)-1-(naphthalen-1-yl)ethyl)piperidin-4-yl)amino)propanamido)acetamido)but-2-enoate] was tested. Which IC50 did it give?
A: 100 to 1000 nM

Q: For COC(=O)/C=C/CNC(=O)CNC(=O)[C@H](CNC(=O)OC(C)(C)C)NC1CCN([C@H](C)c2cccc3ccccc23)CC1 [Compound 27, methyl (S,E)-2,2-dimethyl-7-((1-((R)-1-(naphthalen-1-yl)ethyl)piperidin-4-yl)amino)-4,8,11-trioxo-3-oxa-5,9,12-triazahexadec-14-en-16-oate], which IC50 is on record?
A: 1000 to 10000 nM

Q: Which IC50 does the source give for COC(=O)/C=C/CNC(=O)CNC(=O)[C@@H](C)NC1CCN([C@H](C)c2cccc3ccccc23)CC1 [Compound 28, methyl (E)-4-(2-((R)-2-((1-((R)-1-(naphthalen-1-yl)ethyl)piperidin-4-yl)amino)propanamido)acetamido)but-2-enoate] here?
A: 1000 to 10000 nM

Q: Which IC50 does the source give for COC(=O)/C=C/CNC(=O)CNC(=O)C[C@H](NCc1ccc2c(c1)OCO2)C1CCN(C(C)c2cccc3ccccc23)CC1 (stereo partly drawn) [Compound 29, methyl (E)-4-(2-((3S)-3-((benzo[d][1,3]dioxol-5-ylmethyl)amino)-3-(1-(1-(naphthalen-1-yl)ethyl)piperidin-4-yl)propanamido)acetamido)but-2-enoate] here?
A: 100 to 1000 nM

Q: How did the IC50 turn out when C#CCNC(=O)CCNC(=O)CN(C1CCN([C@H](C)c2cccc3ccccc23)CC1)S(C)(=O)=O [Compound 57, (R)-3-(2-(N-(1-(1-(naphthalen-1-yl)ethyl)piperidin-4-yl)methylsulfonamido)acetamido)-N-(prop-2-yn-1-yl)propanamide] was run?
A: 100 to 1000 nM

Q: With C[C@H](c1cccc2ccccc12)N1CCC(N(CC(=O)NCC(=O)NC/C=C/S(C)(=O)=O)S(C)(=O)=O)CC1 [Compound 59, (R,E)-N-(3-(methylsulfonyl)allyl)-2-(2-(N-(1-(1-(naphthalen-1-yl)ethyl)piperidin-4-yl)methylsulfonamido)acetamido)acetamide] as the compound, how does the IC50 read?
A: 100 to 1000 nM
